Drawing on US9447044B2, “Thioaryl derivatives as GPR120 agonists” (LG LIFE SCIENCES LTD., priority 2012, dated 2016), this text covers EC50 for 29 compounds.

A value given as a limit tells only on which side of the number the result lay.

What is called EC50 is the concentration that produces a half-maximal response.

One test addresses T1, hGPR120 (Homo sapiens, UniProt Q5NUL3).
T1 construct: expressed in transfected cells; host or cells: CHO-K1
T1 sequence (Q5NUL3 1-361): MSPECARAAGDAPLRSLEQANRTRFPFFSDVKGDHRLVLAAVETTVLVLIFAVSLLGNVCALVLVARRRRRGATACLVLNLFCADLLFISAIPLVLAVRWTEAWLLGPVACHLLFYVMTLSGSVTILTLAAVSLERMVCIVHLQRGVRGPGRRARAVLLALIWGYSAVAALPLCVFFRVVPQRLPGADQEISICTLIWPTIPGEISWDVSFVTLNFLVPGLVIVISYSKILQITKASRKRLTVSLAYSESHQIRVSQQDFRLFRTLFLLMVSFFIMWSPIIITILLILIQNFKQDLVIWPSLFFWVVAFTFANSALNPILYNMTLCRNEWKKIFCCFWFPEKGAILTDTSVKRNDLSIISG
Kind of test: Measurement of activity of GPR120 agonist (cell-based assay), calcium fluorescence. As to conditions: CHO-K1 cells expressing Ga16 and hGPR120; Calcium 5 dye fluorescence; activity class. A digest of the protocol:
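CHO-K1 cells co-expressing Gα16 and hGPR120, loaded with Calcium 5 dye for 1 h at 37° C, received serially diluted agonists (final 0.5% DMSO). Fluorescence (Ex 485/Em 525 nm) was expressed as relative percent over 0.1% DMSO-only wells; activity binned as A >20 μM, B 20–2 μM, C 2–0.2 μM, D <0.2 μM.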
As for `CC(C)Sc1ncccc1COc1ccc(C2CC2C(=O)O)c(Cl)c1` (centres unmarked) [Example 89, 2-[2-chloro-4-(2-isopropylsulfanyl-pyridin-3-ylmethoxy)-phenyl]-cyclopropane carboxylic acid], the EC50 was in the range of 0.2 to 2 µM. Same read-out and setting: then `O=C(O)C1CC1c1ccc(OCc2cccc(SC3CCC3)n2)cc1Cl` (centres unmarked) [Example 90], with less than 0.2 µM; and `CC(Cc1ccc(OCc2cccnc2SCC2CC2)c(Cl)c1)C(=O)O` (centres unmarked) [Example 91, 3-[3-chloro-4-(2-cyclopropylmethylsulfanyl-pyridin-3-ylmethoxy)-phenyl]-2-methyl-propionic acid], with less than 0.2 µM. Same read-out and setting: the value for `CCCSc1ncccc1COc1ccc(CC(C)C(=O)O)cc1Cl` (centres unmarked) [Example 92, 3-[3-chloro-4-(2-propylsulfanyl-pyridin-3-ylmethoxy)-phenyl]-2-methyl-propionic acid] was less than 0.2 µM.

For the compound `CC(C)Sc1cccc(COc2ccc(CC(C)C(=O)O)cc2Cl)n1` (centres unmarked) [Example 93, 3-[3-chloro-4-(6-isopropylsulfanyl-pyridin-2-ylmethoxy)-phenyl]-2-methyl-propionic acid], the 50% effective concentration (EC50) was less than 0.2 µM. On the same count and under the same terms, then `CC(Cc1ccc(OCc2cccc(SC3CCCC3)n2)c(Cl)c1)C(=O)O` (centres unmarked) [Example 94, 3-[3-chloro-4-(6-cyclopentylsulfanyl-pyridin-2-ylmethoxy)-phenyl]-2-methyl-propionic acid], with less than 0.2 µM; and `CC(Cc1ccc(OCc2cccc(SC3CCC3)n2)c(Cl)c1)C(=O)O` (centres unmarked) [Example 96, 3-[3-chloro-4-(6-cyclobutylsulfanyl-pyridin-2-ylmethoxy)-phenyl]-2-methyl-propionic acid], with less than 0.2 µM. Still for that read-out and setting: the value for `CC(C)Sc1ncccc1COc1ccc(C2CC2C(=O)O)cc1Cl` (centres unmarked) [Example 97, 2-[3-chloro-4-(2-isopropylsulfanyl-pyridin-3-ylmethoxy)-phenyl]-cyclopropane carboxylic acid] was less than 0.2 µM; that for `O=C(O)C1CC1c1ccc(OCc2cccc(SCC3CC3)n2)c(Cl)c1` (centres unmarked) [Example 98, 2-[3-chloro-4-(6-cyclopropylmethylsulfanyl-pyridin-2-ylmethoxy)-phenyl]-cyclopropane carboxylic acid] was less than 0.2 µM. On the same count and under the same terms, then `CC(C)Sc1cccc(COc2ccc(C3CC3C(=O)O)cc2Cl)n1` (centres unmarked) [Example 99, 2-[3-chloro-4-(6-isopropylsulfanyl-pyridin-2-ylmethoxy)-phenyl]-cyclopropane carboxylic acid], with less than 0.2 µM; and `O=C(O)C1CC1c1ccc(OCc2cccc(SC3CCCC3)n2)c(Cl)c1` (centres unmarked) [Example 100, 2-[3-chloro-4-(6-cyclopentylsulfanyl-pyridin-2-ylmethoxy)-phenyl]-cyclopropane carboxylic acid], with less than 0.2 µM; and `O=C(O)C1CC1c1ccc(OCc2cccnc2SC2CCCC2)c(Cl)c1` (centres unmarked) [Example 101, 2-[3-chloro-4-(2-cyclopentylsulfanyl-pyridin-3-ylmethoxy)-phenyl]-cyclopropane carboxylic acid], with less than 0.2 µM. For `O=C(O)C1CC1c1ccc(OCc2cccnc2SC2CCC2)c(Cl)c1` (centres unmarked) [Example 102, 2-[3-chloro-4-(2-cyclobutylsulfanyl-pyridin-3-ylmethoxy)-phenyl]-cyclopropane carboxylic acid], the EC50 is less than 0.2 µM. On the same count and under the same terms, the value for `O=C(O)C1CC1c1ccc(OCc2cccc(SC3CCC3)n2)c(Cl)c1` (centres unmarked) [Example 103, 2-[3-chloro-4-(6-cyclobutylsulfanyl-pyridin-2-ylmethoxy)-phenyl]-cyclopropane carboxylic acid] was less than 0.2 µM; that for `O=C(O)C1CC1c1ccc(OCc2cccc(SC3CCCC3)n2)cc1Cl` (centres unmarked) [Example 104] was 0.2 to 2 µM; that for `Cc1c(OCc2cccnc2SC(C)C)ccc(C2CC2C(=O)O)c1C` (centres unmarked) [Example 105, 2-[4-(2-isopropylsulfanyl-pyridin-3-ylmethoxy)-2,3-dimethyl-phenyl]-cyclopropane carboxylic acid] was 2 to 20 µM. `Cc1c(OCc2cccnc2SCC2CC2)ccc(C2CC2C(=O)O)c1C` (centres unmarked) [Example 106, 2-[4-(2-cyclopropylmethylsulfanyl-pyridin-3-ylmethoxy)-2,3-dimethyl-phenyl]-cyclopropane carboxylic acid]: the EC50 is more than 20 µM. The same measure, in the same setting: then `O=C(O)C1CC1c1ccc(OCc2cccnc2SCC2CC2)c(Cl)c1` (centres unmarked) [Example 107, 2-[3-chloro-4-(2-cyclopropylmethylsulfanyl-pyridin-3-ylmethoxy)-phenyl]-cyclopropane carboxylic acid], with less than 0.2 µM; and `CCCSc1ncccc1COc1ccc(C2CC2C(=O)O)cc1Cl` (centres unmarked) [Example 108, 2-[3-chloro-4-(2-propylsulfanyl-pyridin-3-ylmethoxy)-phenyl]-cyclopropane carboxylic acid], with less than 0.2 µM; and `COc1ccc(COc2ccc(C3CC3C(=O)O)cc2Cl)c(SC(C)C)n1` (centres unmarked) [Example 109, 2-[3-chloro-4-(2-isopropylsulfanyl-6-methoxy-pyridin-3-ylmethoxy)-phenyl]-cyclopropane carboxylic acid], with 0.2 to 2 µM. Same read-out and setting: the value for `O=C(O)C1CC1Cc1cc(F)c(OCc2cccc(SC3CCCC3)n2)c(F)c1` (centres unmarked) [Example 110, 2-[4-(6-cyclopentylsulfanyl-pyridin-2-ylmethoxy)-3,5-difluoro-benzyl]-cyclopropane carboxylic acid] was 0.2 to 2 µM; that for `O=C(O)CC1COc2c1cc(F)c(OCc1cccnc1SC1CCC1)c2F` (centres unmarked) [Example 111, [6-(2-cyclobutylsulfanyl-pyridin-3-ylmethoxy)-5,7-difluoro-2,3-dihydro-benzofuran-3-yl]-acetic acid] was less than 0.2 µM. Turning to `CCCSc1ncccc1COc1ccc(C2CC2C(=O)O)c(C)c1C` (centres unmarked) [Example 112, 2-[2,3-dimethyl-4-(2-propylsulfanyl-pyridin-3-ylmethoxy)-phenyl]-cyclopropane carboxylic acid], the concentration giving a half-maximal response (EC50) is more than 20 µM. The same measure, in the same setting: the value for `Cc1c(OCc2cccnc2SC2CCC2)ccc(C2CC2C(=O)O)c1C` (centres unmarked) [Example 113, 2-[4-(2-cyclobutylsulfanyl-pyridin-3-ylmethoxy)-2,3-dimethyl-phenyl]-cyclopropane carboxylic acid] was more than 20 µM. For the compound `Cc1c(OCc2cccc(SC(C)C)n2)ccc(C2CC2C(=O)O)c1C` (centres unmarked) [Example 114, 2-[4-(6-isopropylsulfanyl-pyridin-2-ylmethoxy)-2,3-dimethyl-phenyl]-cyclopropane carboxylic acid], the EC50 lay in the range of 2 to 20 µM. Still for that read-out and setting: then `O=C(O)C1CC1Cc1cc(F)c(OCc2cccc(SC3CCC3)n2)c(F)c1` (centres unmarked) [Example 115, 2-[4-(6-cyclobutylsulfanyl-pyridin-2-ylmethoxy)-3,5-difluoro-benzyl]-cyclopropane carboxylic acid], with less than 0.2 µM.

Still in this test, the particulars now being: CHO-K1 cells expressing Ga16 and hGPR120; Calcium 5 dye fluorescence; numeric value.
Turning to `O=C(O)C1CC1c1ccc(OCc2cccnc2SC2CCCC2)c(F)c1` (centres unmarked) [Example 87, 2-[4-(2-cyclopentylsulfanyl-pyridin-3-ylmethoxy)-3-fluoro-phenyl]-cyclopropane carboxylic acid], the EC50 was found to be 64 µM.

For the compound `O=C(O)C1CC1c1ccc(OCc2cccnc2SC2CCC2)c(F)c1` (centres unmarked) [Example 88, 2-[4-(2-cyclobutylsulfanyl-pyridin-3-ylmethoxy)-3-fluoro-phenyl]-cyclopropane carboxylic acid], the EC50 is 57 µM.

For the compound `CC(Cc1ccc(OCc2cccnc2SC2CCC2)c(Cl)c1)C(=O)O` (centres unmarked) [Example 95, 3-[3-chloro-4-(2-cyclobutylsulfanyl-pyridin-3-ylmethoxy)-phenyl]-2-methyl-propionic acid], the EC50 was 0.088 µM.
